Test results as given in the supplement of paper PMC11061612.

Experiments:
Assay in all cases: Bliss excess, mean over the matrix (fraction); higher = more synergy
[1] = tested on: ATN-1 (T-Lymphoblastic Leukemia)
Summary of the method: (§1)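 Cell lines in DMEM/F12 or RPMI with 10% FBS were plated in 1536-well plates, held 24 hours at 37°C, 5% CO2, then given two-drug dose matrices for 72 hours (DMSO typically 0.2%). Viability was read by CellTiter-Glo 2.0 luminescence and scaled as inhibition from 0 (vehicle wells) to 1 (blank wells). Combination Emax is the second-highest inhibition in the matrix; Bliss excess is observed combination effect minus expected EA + EB − EA·EB, EA and EB being single-agent effects.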

[2] = tested on: BC-1 (B-Cell Non-Hodgkin's Lymphoma)
Summary of the method: as §1

[3] = tested on: BT-474 (Breast Carcinoma)
Summary of the method: as §1

[4] = tested on: CAL-85-1 (Breast Carcinoma)
Summary of the method: as §1

[5] = tested on: JURL-MK1 (Chronic Myelogenous Leukemia)
Summary of the method: as §1

[6] = tested on: KNS-62 (Squamous Cell Lung Carcinoma)
Summary of the method: as §1

[7] = tested on: L-363 (Plasma Cell Myeloma)
Summary of the method: as §1

MG-63 (Osteosarcoma) = tested on: MG-63 (Osteosarcoma)
Summary of the method: as §1

[8] = tested on: MRK-nu-1 (Breast Carcinoma)
Summary of the method: as §1

[9] = tested on: NCI-H1648 (Lung Adenocarcinoma)
Summary of the method: as §1

[10] = tested on: NCI-H1944 (Lung Adenocarcinoma)
Summary of the method: as §1

[11] = tested on: NCI-H1975 (Lung Adenocarcinoma)
Summary of the method: as §1

[12] = tested on: NCI-H2023 (Non-Small Cell Lung Carcinoma)
Summary of the method: as §1

[13] = tested on: NCI-H2170 (Squamous Cell Lung Carcinoma)
Summary of the method: as §1

NCI-H2452 (Mesothelioma) = tested on: NCI-H2452 (Mesothelioma)
Summary of the method: as §1

[14] = tested on: RPMI-8402 (T-Lymphoblastic Leukemia)
Summary of the method: as §1

[15] = tested on: SBC-5 (Small Cell Lung Carcinoma)
Summary of the method: as §1

[16] = tested on: SCC90 (Head and Neck Carcinoma)
Summary of the method: as §1

[17] = tested on: SW1463 (Colorectal Carcinoma)
Summary of the method: as §1

[18] = tested on: NCI-H835 (Other Solid Carcinomas)
Summary of the method: as §1

| Compound | Bliss excess [1] | Bliss excess [2] | Bliss excess [3] | Bliss excess [4] | Bliss excess [5] | Bliss excess [6] | Bliss excess [7] | Bliss excess (MG-63 (Osteosarcoma)) | Bliss excess [8] | Bliss excess [9] | Bliss excess [10] | Bliss excess [11] | Bliss excess [12] | Bliss excess [13] | Bliss excess (NCI-H2452 (Mesothelioma)) | Bliss excess [14] | Bliss excess [15] | Bliss excess [16] | Bliss excess [17] | Bliss excess [18] |
| --- | --- | --- | --- | --- | --- | --- | --- | --- | --- | --- | --- | --- | --- | --- | --- | --- | --- | --- | --- | --- |
| CN(CCO)CC[C@H](CSc1ccccc1)Nc1ccc(S(=O)(=O)NC(=O)c2ccc(N3CCC([C@@H](O)c4ccccc4-c4ccc(Cl)cc4)CC3)cc2)cc1S(=O)(=O)C(F)(F)F [AZD4320] + C[C@@H]1COCCN1C2=NC(=NC(=C2)C3(CC3)[S@](=N)(=O)C)C4=C5C=CNC5=NC=C4 [AZD6738] (first compound max 1 µM, 7x7, partner max 10 µM) | 0.0273 | -0.0014 | -0.0901 | -0.0048 | -0.0278 | -0.0338 | -0.007 | -0.0762 | 0.0039 | -0.0523 | -0.0227 | -0.0134 | -0.0255 | -0.0478 | -0.0246 | 0.031 | -0.0511 | 0.019 | -0.0236 |  |
| N#Cc1cnc(Nc2cc(NC[C@H]3CNCCO3)c(C(F)(F)F)cn2)cn1 [SRA737] + C=CCn1c(=O)c2cnc(Nc3ccc(N4CCN(C)CC4)cc3)nc2n1-c1cccc(C(C)(C)O)n1 [AZD1775] (first compound max 10 µM, partner max 1 µM) |  | 0.099 |  | -0.0283 |  | 0.0171 | 0.121 | 0.0974 | 0.0988 | -0.0116 |  |  | 0.0404 |  | -0.0018 | 0.0473 |  |  | 0.0027 | 0.01 |
| C[C@@H](c1ccc2nccn2c1)n1nnc2ncc(-c3cnn(C)c3)nc21 [Savolitinib] + Cc1c2c(nn1C)CSCc1cc(n(C)n1)CSc1cc(c3ccccc3c1)OCCCc1c(C(=O)O)n(C)c3c-2c(Cl)ccc13 [AZD5991] (first compound max 1 µM, 7x7, partner max 1 µM) | -0.0293 | -0.0076 | -0.0595 | -0.0286 | -0.0037 | -0.0471 | -0.0203 | 0.0065 | 0.0344 | 0.0216 | -0.0112 | -0.0275 | -0.0323 | -0.0199 | -0.109 | -0.132 | 0.0286 | -0.0222 | -0.0109 | -0.0267 |
| Cc1cc2ncnn2cc1Nc1ncc2c(n1)n(C1CCOCC1)c(=O)n2C [AZD7648] + C[C@@H]1COCCN1C2=NC(=NC(=C2)C3(CC3)[S@](=N)(=O)C)C4=C5C=CNC5=NC=C4 [AZD6738] (first compound max 10 µM, 7x7, partner max 10 µM) | 0.0406 | -0.016 | 0.0245 | 0.0307 | -0.0039 | 0.0778 | 0.0096 | 0.0557 | 0.0054 | -0.0379 | 0.0055 | 0.015 | 0.0722 | -0.0153 | 0.0084 | 0.0216 | 0.0284 | 0.0385 | 0.0087 | 0.0417 |
| CN(CCO)CC[C@H](CSc1ccccc1)Nc1ccc(S(=O)(=O)NC(=O)c2ccc(N3CCC([C@@H](O)c4ccccc4-c4ccc(Cl)cc4)CC3)cc2)cc1S(=O)(=O)C(F)(F)F [AZD4320] + CCN(CCO)CCCOc1ccc2c(Nc3cc(CC(=O)Nc4cccc(F)c4)[nH]n3)ncnc2c1 [AZD2811] (first compound max 1 µM, 7x7, partner max 1 µM) | 0.0082 | 0.091 | 0.0081 | 0.0218 | 0.0346 | -0.0204 | -0.015 | 0.0838 | 0.0505 | 0.0065 | 0.0026 | -0.0226 | -0.0636 | -0.051 | -0.0111 | 0.0501 | -0.0075 | 0.134 | -0.0238 |  |
| Cc1cc2ncnn2cc1Nc1ncc2c(n1)n(C1CCOCC1)c(=O)n2C [AZD7648] + CN(C)CCCOc1ccc(-c2ccc3ncc4c(c3c2)n(C2CCOCC2)c(=O)n4C)cn1 [AZD0156] (first compound max 10 µM, 7x7, partner max 1 µM) | 0.0185 | 0.0465 | 0.0241 | -0.0542 | -0.0184 | -0.0064 | 0.0303 | 0.0397 | 0.0348 | 0.0176 | -0.0039 | -0.0071 | -0.0192 | 0.009 | -0.0457 | 0.0104 | 0.0236 | 0.0055 | 0.0037 | 0.0086 |
| CN(CCO)CC[C@H](CSc1ccccc1)Nc1ccc(S(=O)(=O)NC(=O)c2ccc(N3CCC([C@@H](O)c4ccccc4-c4ccc(Cl)cc4)CC3)cc2)cc1S(=O)(=O)C(F)(F)F [AZD4320] + CC(=O)O[C@H]1C(=O)[C@@]2(C)[C@H]([C@H](OC(=O)c3ccccc3)[C@]3(O)C[C@H](OC(=O)[C@H](O)[C@@H](NC(=O)c4ccccc4)c4ccccc4)C(C)=C1C3(C)C)[C@]1(OC(C)=O)CO[C@@H]1C[C@@H]2O [Paclitaxel] (first compound max 1 µM, 7x7, partner max 3 µM) |  | 0.0045 |  | 0.0773 |  | 0.185 | -0.0131 | 0.0471 | 0.0162 | -0.0009 |  |  | 0.0458 |  | 0.117 | -0.0038 |  |  | 0.0662 | 0.199 |
| CN(CCO)CC[C@H](CSc1ccccc1)Nc1ccc(S(=O)(=O)NC(=O)c2ccc(N3CCC([C@@H](O)c4ccccc4-c4ccc(Cl)cc4)CC3)cc2)cc1S(=O)(=O)C(F)(F)F [AZD4320] + C[C@@H](Nc1cc(F)cc(F)c1)c1cc(C(=O)N(C)C)cc2c(=O)cc(N3CCOCC3)oc12 [AZD8186] (first compound max 1 µM, 7x7, partner max 3 µM) | -0.0214 | 0.0677 | 0.0516 | 0.0145 | 0.0149 | 0.0068 | 0.0753 | -0.0149 | -0.0216 | 0.0323 | -0.0426 | 0.0261 | -0.034 | 0.0284 | -0.0369 | 0.0715 | 0.0591 | 0.0276 | -0.0706 |  |
| Cc1cc2ncnn2cc1Nc1ncc2c(n1)n(C1CCOCC1)c(=O)n2C [AZD7648] + C=CCn1c(=O)c2cnc(Nc3ccc(N4CCN(C)CC4)cc3)nc2n1-c1cccc(C(C)(C)O)n1 [AZD1775] (first compound max 10 µM, partner max 1 µM) | -0.0176 | 0.004 | 0.0103 | -0.0292 | -0.0773 | 0.0584 | 0.0185 | 0.0269 | 0.0279 | 0.0026 | -0.0005 | -0.0107 | 0.027 | -0.0972 | 0.0647 | -0.0213 | -0.0136 | 0.0276 | -0.0327 | 0.0229 |
| N#Cc1cnc(Nc2cc(NC[C@H]3CNCCO3)c(C(F)(F)F)cn2)cn1 [SRA737] + CCc1c2c(nc3ccc(O)cc13)-c1cc3c(c(=O)n1C2)COC(=O)[C@]3(O)CC [SN-38] (first compound max 10 µM, 7x7, partner max 0.3 µM) |  | -0.0242 |  | -0.0479 |  | -0.0387 | 0.0599 | -0.0251 | -0.128 |  |  |  | -0.0813 |  | 0.0683 | -0.0209 |  |  | 0.0621 | -0.0262 |
| N#Cc1cnc(Nc2cc(NC[C@H]3CNCCO3)c(C(F)(F)F)cn2)cn1 [SRA737] + Nc1ccn([C@@H]2O[C@H](CO)[C@@H](O)C2(F)F)c(=O)n1 [Gemcitabine] (first compound max 10 µM, 7x7, partner max 0.3 µM) |  | 0.0426 |  | 0.0442 |  | 0.0488 | 0.123 | 0.124 | 0.0214 | 0.0912 |  |  | 0.0332 |  | 0.0892 | 0.0312 |  |  | 0.0633 | -0.0363 |
| CN(CCO)CC[C@H](CSc1ccccc1)Nc1ccc(S(=O)(=O)NC(=O)c2ccc(N3CCC([C@@H](O)c4ccccc4-c4ccc(Cl)cc4)CC3)cc2)cc1S(=O)(=O)C(F)(F)F [AZD4320] + Cc1cc2ncnn2cc1Nc1ncc2c(n1)n(C1CCOCC1)c(=O)n2C [AZD7648] (first compound max 1 µM, 7x7, partner max 10 µM) | 0.0479 | 0.0246 | -0.0628 | -0.0118 | -0.0287 | -0.0628 | 0.0181 | -0.0463 | 0.0501 | -0.0264 | 0.0102 | -0.0283 | -0.0585 | -0.006 | -0.011 | 0.0194 | -0.032 | 0.0682 | -0.0232 |  |
| Cc1cc2ncnn2cc1Nc1ncc2c(n1)n(C1CCOCC1)c(=O)n2C [AZD7648] + O=C(c1cc(Cc2n[nH]c(=O)c3ccccc23)ccc1F)N1CCN(C(=O)C2CC2)CC1 [Olaparib] (first compound max 10 µM, 7x7, partner max 10 µM) | -0.031 | 0.0015 | -0.0457 | -0.057 | -0.0253 | -0.0507 | 0.0266 | 0.0014 | -0.0615 | -0.0549 | -0.033 | 0.0135 | -0.0892 | -0.0052 | -0.0664 | -0.0158 | -0.034 | -0.0364 | -0.0417 |  |
| Cc1cc2ncnn2cc1Nc1ncc2c(n1)n(C1CCOCC1)c(=O)n2C [AZD7648] + COc1cc([C@@H]2c3cc4c(cc3[C@@H](O[C@@H]3O[C@@H]5CO[C@@H](C)O[C@H]5[C@H](O)[C@H]3O)[C@H]3COC(=O)[C@H]23)OCO4)cc(OC)c1O [Etoposide] (first compound max 10 µM, 7x7, partner max 10 µM) |  | 0.0896 |  | 0.0483 |  | 0.056 | 0.0582 | 0.0878 | 0.0829 | -0.0577 |  |  | 0.0401 |  | 0.0449 | 0.0847 |  |  | -0.0081 | 0.024 |
| C[C@@H](c1ccc2nccn2c1)n1nnc2ncc(-c3cnn(C)c3)nc21 [Savolitinib] + CN(CC[C@H](CSC1=CC=CC=C1)NC2=C(C=C(C=C2)S(=O)(=O)NC(=O)C3=CC=C(C=C3)N4CCC(CC4)[C@H](C5=CC=CC=C5C6=CC=C(C=C6)Cl)O)S(=O)(=O)C(F)(F)F)CCO [AZD4320] (first compound max 1 µM, 7x7, partner max 1 µM) | 0.0235 |  | -0.0534 |  | -0.0811 |  |  |  |  |  | -0.0288 | -0.0555 |  | -0.0589 |  |  | -0.0003 | 0.0447 |  |  |
